Assay results as given in patent US20070128217A1 (priority 2003, published 2007).

Assays:
[1] = tested on: control sera (pooled serum of ten healthy LUMC hospital workers; commercial negative donor pooled serum from the Dutch bloodbank); assay type: binding, human; design: Binding of Control serum LUMC to linear peptides / Binding of Control serum Blood-bank to linear peptides / Binding of Control serum LUMC to looped peptides / Binding of Control Serum Blood-Bank to Looped peptides / Binding of Control serum LUMC to linear peptides of the protein M of SARS-CoV Urbani / Binding of Control serum Blood-bank to linear peptides of the protein M of SARS-CoV Urbani / Binding of Control serum LUMC to looped peptides of the protein M of SARS-CoV Urbani / Binding of Control Serum Blood-Bank to Looped peptides of the protein M of SARS-CoV Urbani: unit not given here
[2] = tested on: rabbit serum obtained by immunizing a rabbit with the SARS-CoV strain Frankfurt 1; assay type: binding; design: Binding of a rabbit serum to linear peptides / Binding of a rabbit serum to looped peptides / Rabbit serum linear peptides / Rabbit serum looped peptides / Binding of a rabbit serum to linear peptides of protein N of SARS-CoV Urbani (Rabbit serum linear peptides) / Binding of a rabbit serum to looped/cyclic peptides of protein N of SARS-CoV Urbani (Rabbit serum looped peptides): unit not given here
[3] = tested on: recombinant human anti-SARS-CoV antibody 03-018; assay type: binding; design: Binding of antibody 03-018 to linear peptides of the N protein of SARS-CoV Urbani / Binding of antibody 03-018 to looped/cyclic peptides of the N protein of SARS-CoV Urbani: unit not given here
[4] = tested on: antibodies in sera from SARS patients (sera 1a, 1b, 2, 6, 37, 62, London, SARS-yellow, SARS-green); assay type: binding, human; design: Binding of serum 6 to linear peptides of protein X1 of SARS-CoV Urbani / Binding of serum 37 to linear peptides of protein X1 of SARS-CoV Urbani / Binding of serum 6 to looped/cyclic peptide (PEPSCAN-ELISA) / Binding of serum 37 to looped/cyclic peptide (PEPSCAN-ELISA) / Binding of serum 37 to looped/cyclic peptides of protein X1 of SARS-CoV Urbani / Binding of serum 6 to linear peptides of protein X2 / Binding of serum 37 to linear peptides of protein X2 / Binding of serum 37 to looped/cyclic peptides of protein X2 of SARS-CoV Urbani / Binding of serum 6 to linear peptides of protein M of SARS-CoV Urbani / Binding of serum 37 to linear peptides of protein M of SARS-CoV Urbani / Binding of serum 6 to looped/cyclic peptides of protein M of SARS-CoV Urbani / Binding of serum 37 to looped/cyclic peptides of protein M of SARS-CoV Urbani / Binding of serum 6 to linear peptides of protein X3 of SARS-CoV Urbani / Binding of serum 37 to linear peptides of protein X3 of SARS-CoV Urbani / Binding of serum 37 to looped/cyclic peptides of protein X3 of SARS-CoV Urbani / Binding of serum 6 to linear peptides of protein X4 of SARS-CoV Urbani / Binding of serum 37 to linear peptides of protein X4 of SARS-CoV Urbani / Binding of serum 37 to looped/cyclic peptides of protein X4 of SARS-CoV Urbani / Binding of serum 6 to linear peptides of protein X5 of SARS-CoV Urbani / Binding of serum 37 to linear peptides of protein X5 of SARS-CoV Urbani / Binding of serum 37 to looped/cyclic peptides of protein X5 of SARS-CoV Urbani / Binding of serum 6 to linear peptides of protein N of SARS-CoV Urbani / Binding of serum 37 to linear peptides of protein N of SARS-CoV Urbani / Binding of serum 6 to linear peptide (PEPSCAN-ELISA) / Binding of serum 1a to looped/cyclic peptides of protein N of SARS-CoV Urbani / Binding of serum 1b to looped/cyclic peptides of protein N of SARS-CoV Urbani / Binding of serum 2 to looped/cyclic peptides of protein N of SARS-CoV Urbani / Binding of serum 6 to looped/cyclic peptides of protein N of SARS-CoV Urbani / Binding of serum 37 to looped/cyclic peptides of protein N of SARS-CoV Urbani / Binding of serum 62 to looped/cyclic peptides of protein N of SARS-CoV Urbani / Binding of serum London to looped/cyclic peptides of protein N of SARS-CoV Urbani / Binding of serum SARS-green to looped/cyclic peptides of protein N of SARS-CoV Urbani: unit not given here

Sequence | Binding of a rabbit serum to linear peptides of protein N of SARS-CoV Urbani (Rabbit serum linear peptides) [2] | Binding of a rabbit serum to looped/cyclic peptides of protein N of SARS-CoV Urbani (Rabbit serum looped peptides) [2] | Binding of antibody 03-018 to linear peptides of the N protein of SARS-CoV Urbani [3] | Binding of antibody 03-018 to looped/cyclic peptides of the N protein of SARS-CoV Urbani [3] | Binding of Control Serum Blood-Bank to Looped peptides [1] | Binding of Control serum Blood-bank to linear peptides [1] | Binding of Control serum LUMC to linear peptides [1] | Binding of Control serum LUMC to looped peptides [1] | other results
QFKDNVILLNKHIDA | 0.1 | 0.7 | 0.1 | 0.3 |  |  |  |  | Control Serum Blood-Bank Looped peptides [1]: 0.9; Control serum Blood-bank linear peptides [1]: 0.6; Control serum LUMC linear peptides [1]: 0.6; Control serum LUMC looped peptides [1]: 0.8
RTATKQYNVTQAFGR |  |  | 0.1 | 0.2 | 0.8 | 0.9 | 0.8 | 0.9 | Recognition of the peptide by the rabbit serum [2]: recognized
STPGSSRGNSPARMA |  |  | 0.1 | 0.2 |  |  |  |  | Recognition of the peptide by the rabbit serum [2]: recognized; Binding of serum 1a to linear peptide (PEPSCAN-ELISA) [4]: 0.5; Binding of serum 1a to looped/cyclic peptides of protein N of SARS-CoV Urbani [4]: 0.3; Binding of serum 1b to linear peptide (PEPSCAN-ELISA) [4]: 0.3; Binding of serum 1b to looped/cyclic peptides of protein N of SARS-CoV Urbani [4]: 0.2; Binding of serum 2 to linear peptide (PEPSCAN-ELISA) [4]: 0.4; Binding of serum 2 to looped/cyclic peptides of protein N of SARS-CoV Urbani [4]: 0.4; Binding of serum 6 to linear peptide (PEPSCAN-ELISA) [4]: 0.3; Binding of serum 6 to looped/cyclic peptides of protein N of SARS-CoV Urbani [4]: 0.4; Binding of serum 37 to linear peptide (PEPSCAN-ELISA) [4]: 0.7; Binding of serum 37 to looped/cyclic peptides of protein N of SARS-CoV Urbani [4]: 0.6; Binding of serum 62 to linear peptide (PEPSCAN-ELISA) [4]: 0.8; Binding of serum 62 to looped/cyclic peptides of protein N of SARS-CoV Urbani [4]: 0.5; Binding of serum London to linear peptide (PEPSCAN-ELISA) [4]: 0.5; Binding of serum London to looped/cyclic peptides of protein N of SARS-CoV Urbani [4]: 0.5; Binding of serum SARS-green to linear peptide (PEPSCAN-ELISA) [4]: 0.8; Binding of serum SARS-green to looped/cyclic peptides of protein N of SARS-CoV Urbani [4]: 0.2; Binding of serum SARS-yellow to linear peptide (PEPSCAN-ELISA) [4]: 0.7; Binding of serum SARS-yellow to looped/cyclic peptides of protein N of SARS-CoV Urbani [4]: 0.5
ARMASGGGETALALL | 0.2 | 0.0 | 0.1 | 0.3 | 0.6 | 0.8 | 0.7 | 0.8 | 
PRQKRTATKQYNVTQ |  |  | 0.1 | 0.2 | 1.0 | 1.0 | 0.9 | 0.9 | Recognition of the peptide by the rabbit serum [2]: recognized
TLPKGFYAEGSRGGS | 0.5 | 0.3 | 0.1 | 0.2 | 0.5 | 0.7 | 1.2 | 0.5 | 
NNAATVLQLPQGTTL | 0.2 | 0.4 | 0.1 | 0.3 | 0.8 | 0.9 | 0.9 | 0.8 | 
NSPARMASGGGETAL | 0.3 | 0.3 | 0.1 | 0.2 | 0.3 | 0.9 | 0.7 | 0.4 | 
LPQGTTLPKGFYAEG | 0.1 | 0.7 | 0.1 | 0.3 | 0.9 | 0.8 | 0.8 | 0.8 | 
QKRTATKQYNVTQAF |  |  | 0.1 | 0.2 | 0.8 | 0.8 | 0.7 | 0.8 | Recognition of the peptide by the rabbit serum [2]: recognized
VLQLPQGTTLPKGFY | 0.2 | 0.4 | 0.1 | 0.3 | 0.7 | 0.7 | 0.6 | 0.8 | 
QLPQGTTLPKGFYAE | 0.2 | 0.4 | 0.1 | 0.2 | 0.6 | 0.9 | 0.7 | 0.6 | 
PQFKDNVILLNKHID | 0.2 | 0.4 | 0.1 | 0.2 |  |  |  |  | Control Serum Blood-Bank Looped peptides [1]: 0.7; Control serum Blood-bank linear peptides [1]: 0.7; Control serum LUMC linear peptides [1]: 0.7; Control serum LUMC looped peptides [1]: 0.8
IKLDDKDPQFKDNVI | 0.1 | 0.3 | 0.1 | 0.2 |  |  |  |  | Control Serum Blood-Bank Looped peptides [1]: 0.6; Control serum Blood-bank linear peptides [1]: 0.9; Control serum LUMC linear peptides [1]: 0.9; Control serum LUMC looped peptides [1]: 0.6
